Read-outs that look alike come from different tables or passages of the source.
What was measured:
Format in all cases: in vivo
[1] = tested on: S. pneumoniae 157E (tet^S); experiment: Oral efficacy screen, murine model of S. pneumoniae systemic infection (survival); details: Streptococcus pneumoniae, 1 h, read-out: % survival at 10 (po) mg/kg
Description: The following example was used to assess the oral bioavailability of compounds of the invention in an oral efficacy screen in murine models of infection. The compounds were screened by administering a single 10 mg/kg oral dose to mice 1 hour after administration of a lethal intraperitoneal inoculum of S. pneumoniae 157E (tet^S).
In Table 1 below, compounds with a survival rate of ≧80% are indicated with ‘***”; compounds with a survival rate of ≧60% are indicated with ‘**” and compounds with a survival rate of […] are indicated with ‘*’. Compounds with a survival rate of less than 20% are indicated with ‘−’.

S. pneumoniae 157E = experiment: Oral efficacy (PD50) in mice with acute systemic infection by susceptible S. pneumoniae; details: Streptococcus pneumoniae, read-out: PD50, S. pneumoniae 157E
Description: (§1) Relative to linezolid, the PD50 values for a number of the compounds were within an 2-fold range against the resistant organism. Compounds with PD50 values of less than 7 mg/kg/dose are indicated with “***.” Compounds with PD50 values of less than 14 mg/kg/dose but greater than 7 mg/kg/dose are indicated with “**.” Compounds with PD50 values of greater than 14 mg/kg/dose, but less than 21 mg/kg/dose are indicated with “*.” Compounds with PD50 values greater than 21 mg/kg/dose are indicated with “−”

S. pneumoniae 700905 = experiment: Oral efficacy (PD50) in mice with acute systemic infection by resistant S. pneumoniae; details: Streptococcus pneumoniae, resistant S. pneumoniae 700905
Description: as §1

[2] = mice, oral, acute systemic infection, susceptible S. pneumoniae 157E

| SMILES | responders at 10 mg/kg [1] | ED50 (S. pneumoniae 157E; 157E, po) | ED50 (S. pneumoniae 700905) | ED50 (S. pneumoniae 157E; [2]) |
| --- | --- | --- | --- | --- |
| CN(C)c1cc(CN(CC(C)(C)C)C(=O)OCOC(=O)CCc2ccccc2)c(O)c2c1C[C@H]1C[C@H]3[C@H](N(C)C)C(O)=C(C(N)=O)C(=O)[C@@]3(O)C(O)=C1C2=O [E] | > 0% |  |  |  |
| CN(C)c1cc(CN(CC(C)(C)C)C(=O)OCOC(=O)c2ccccc2)c(O)c2c1C[C@H]1C[C@H]3[C@H](N(C)C)C(O)=C(C(N)=O)C(=O)[C@@]3(O)C(O)=C1C2=O [D] | > 0% | < 7 mg/kg |  |  |
| COc1ccc(C(=O)OCOC(=O)N(Cc2cc(N(C)C)c3c(c2O)C(=O)C2=C(O)[C@]4(O)C(=O)C(C(N)=O)=C(O)[C@@H](N(C)C)[C@@H]4C[C@@H]2C3)CC(C)(C)C)cc1 [G] | > 60% | 7 to 14 mg/kg |  |  |
| CN(C)c1cc(CN(CC(C)(C)C)C(=O)OCOC(=O)C(C)(C)C)c(O)c2c1C[C@H]1C[C@H]3[C@H](N(C)C)C(O)=C(C(N)=O)C(=O)[C@@]3(O)C(O)=C1C2=O [A] | > 80% | < 7 mg/kg | < 7 mg/kg |  |
| CCCC(=O)OCOC(=O)N(Cc1cc(N(C)C)c2c(c1O)C(=O)C1=C(O)[C@]3(O)C(=O)C(C(N)=O)=C(O)[C@@H](N(C)C)[C@@H]3C[C@@H]1C2)CC(C)(C)C [Q] | > 80% |  | 14 to 21 mg/kg |  |
| CC1(C)S[C@@H]2[C@H](NC(=O)[C@H](N)c3ccccc3)C(=O)N2[C@H]1C(=O)O [Ampicillin, reference compound] |  |  |  | 14 to 21 mg/kg |
| CC(C)C(=O)OCOC(=O)N(Cc1cc(N(C)C)c2c(c1O)C(=O)C1=C(O)[C@]3(O)C(=O)C(C(N)=O)=C(O)[C@@H](N(C)C)[C@@H]3C[C@@H]1C2)CC(C)(C)C [R] | > 80% |  | 7 to 14 mg/kg |  |
| CN(C)c1cc(CN(CC(C)(C)C)C(=O)OCOC(=O)CC(C)(C)C)c(O)c2c1C[C@H]1C[C@H]3[C@H](N(C)C)C(O)=C(C(N)=O)C(=O)[C@@]3(O)C(O)=C1C2=O [H] | > 80% | < 7 mg/kg | 7 to 14 mg/kg |  |
| CN(C)c1ccc(O)c2c1C[C@H]1C[C@H]3[C@H](N(C)C)C(O)=C(C(N)=O)C(=O)[C@@]3(O)C(O)=C1C2=O [Minocycline, reference compound] |  |  |  | 7 to 14 mg/kg |
| CN(C)c1cc(CN(CC(C)(C)C)C(=O)OCOC(=O)Cc2ccccc2)c(O)c2c1C[C@H]1C[C@H]3[C@H](N(C)C)C(O)=C(C(N)=O)C(=O)[C@@]3(O)C(O)=C1C2=O [O] | > 60% |  | 7 to 14 mg/kg |  |
| CC[C@H]1OC(=O)[C@H](C)[C@@H](O[C@H]2C[C@@](C)(OC)[C@@H](O)[C@H](C)O2)[C@H](C)[C@@H](O[C@@H]2O[C@H](C)C[C@H](N(C)C)[C@H]2O)[C@](C)(O)C[C@@H](C)CN(C)[C@H](C)[C@@H](O)[C@]1(C)O [Azithromycin, reference compound] |  |  |  | 7 to 14 mg/kg |
| CN(C)c1cc(CN(CC(C)(C)C)C(=O)OCOC(=O)C2CCCCC2)c(O)c2c1C[C@H]1C[C@H]3[C@H](N(C)C)C(O)=C(C(N)=O)C(=O)[C@@]3(O)C(O)=C1C2=O [F] | > 60% | < 7 mg/kg | 14 to 21 mg/kg |  |
| CN(C)c1cc(CN(CC(C)(C)C)C(=O)OCOC(=O)c2c(F)cccc2F)c(O)c2c1C[C@H]1C[C@H]3[C@H](N(C)C)C(O)=C(C(N)=O)C(=O)[C@@]3(O)C(O)=C1C2=O [N] | > 80% |  | 14 to 21 mg/kg |  |
| CN(C)c1cc(CN(CC(C)(C)C)C(=O)OCOC(=O)c2ccc(C(F)(F)F)cc2)c(O)c2c1C[C@H]1C[C@H]3[C@H](N(C)C)C(O)=C(C(N)=O)C(=O)[C@@]3(O)C(O)=C1C2=O [M] | > 80% |  |  |  |
| COCCOCC(=O)OCOC(=O)N(Cc1cc(N(C)C)c2c(c1O)C(=O)C1=C(O)[C@]3(O)C(=O)C(C(C)=O)=C(O)[C@@H](N(C)C)[C@@H]3C[C@@H]1C2)CC(C)(C)C [L] | > 60% |  |  |  |
| CC(=O)NC[C@H]1CN(c2ccc(N3CCOCC3)c(F)c2)C(=O)O1 [Linezolid, reference compound] |  |  | 7 to 14 mg/kg | < 7 mg/kg |
| COCC(=O)OCOC(=O)N(Cc1cc(N(C)C)c2c(c1O)C(=O)C1=C(O)[C@]3(O)C(=O)C(C(N)=O)=C(O)[C@@H](N(C)C)[C@@H]3C[C@@H]1C2)CC(C)(C)C [J] | > 0% |  |  |  |
| COCCC(=O)OCOC(=O)N(Cc1cc(N(C)C)c2c(c1O)C(=O)C1=C(O)[C@]3(O)C(=O)C(C(N)=O)=C(O)[C@@H](N(C)C)[C@@H]3C[C@@H]1C2)CC(C)(C)C [K] | > 80% | < 7 mg/kg | 14 to 21 mg/kg |  |
| CC(=O)OCOC(=O)N(Cc1cc(N(C)C)c2c(c1O)C(=O)C1=C(O)[C@]3(O)C(=O)C(C(N)=O)=C(O)[C@@H](N(C)C)[C@@H]3C[C@@H]1C2)CC(C)(C)C [B] | > 80% | 7 to 14 mg/kg | 7 to 14 mg/kg |  |
| CCC(=O)OCOC(=O)N(Cc1cc(N(C)C)c2c(c1O)C(=O)C1=C(O)[C@]3(O)C(=O)C(C(N)=O)=C(O)[C@@H](N(C)C)[C@@H]3C[C@@H]1C2)CC(C)(C)C [P] | > 80% |  | 14 to 21 mg/kg |  |
| C[C@H]1c2cccc(O)c2C(=O)C2=C(O)[C@]3(O)C(=O)C(C(N)=O)=C(O)[C@@H](N(C)C)[C@@H]3[C@@H](O)[C@@H]21 [Doxycycline, reference compound] |  |  |  | < 7 mg/kg |
| CC(OC(=O)N(Cc1cc(N(C)C)c2c(c1O)C(=O)C1=C(O)[C@]3(O)C(=O)C(C(N)=O)=C(O)[C@@H](N(C)C)[C@@H]3C[C@@H]1C2)CC(C)(C)C)OC(=O)C(C)(C)C (some centres unmarked) [I] | > 80% |  | 7 to 14 mg/kg |  |
